Measurements as given in patent publication US20220226340A1, “CASEIN KINASE 1 INHIBITORS FOR USE IN THE TREATMENT OF DISEASES RELATED TO DUX4 EXPRESSION SUCH AS MUSCULAR DYSTROPHY AND CANCER” (Facio Intellectual Property B.V., priority 2019, published 2022).
Read-outs that look alike come from different tables or passages of the source.

Assays:
[1] = tested on: pancreatic tumor cell; conditions: in vitro and in vivo; cited from earlier work
[2] = tested on: DUX4; conditions: immortalised differentiated myotube cultures; cited from earlier work
[3] = tested on: DUX4; assay: high-content immunocytochemistry assay of endogenous DUX4 expression in differentiating primary FSHD myotubes; format: cell-based, human; conditions: for EC50: Homo sapiens, Myotube, 72 h, 72 h treatment protocol, read-out: DUX4 EC50
Description: (§1) A quantitative assay readout was developed based on script-based image analysis. […] To analyse the images, an automated script was developed, enabling the detection of nuclei, myotube borders and DUX4 signals, with the script also detecting artefacts to reduce false positive signals. The script enabled multiple validated readouts including the number of DUX4 positive nuclei and nuclei clusters, the fusion index, myotube area, myotube width and myotube skeleton length (see FIG. 2). Additionally, the total nuclei count was included as a measure of cell loss or compound toxicity.
A compound library containing approximately 5000 annotated compounds was screened in the high-content assay. For this purpose, primary myoblasts were seeded in 384 well plates after which the growth medium was replaced with differentiation medium. After 3 days of differentiation, cells were treated with library compounds (in duplicate on different screening plates) for 15 h, after which they were fixed and stained with antibodies against DUX4, antibodies against myosin heavy chain (MHC), and with DAPI (4′,6-diamidino-2-phenylindole). Script-based analysis provided readouts for DUX4 expression (count of DUX4-positive nuclei or DUX4 intensity) and for potential toxicity (fusion index and nuclei count).
Compounds were incubated with primary FSHD cells for 15 hours, as indicated by the arrow in FIG. 4A.
(§2) Compounds are administered either 15 h before fixation, resembling the original screening protocol, or 72 h before fixation (grey arrow). In the latter case, compounds are present during the whole differentiation process.

[4] = molecular target: CK1δ (Homo sapiens, UniProt P48730); assay: CK1δ inhibition IC50; format: biochemical; conditions: Table 6; read-out: IC50 CK1δ
Sequence of CK1δ (P48730 whole entry): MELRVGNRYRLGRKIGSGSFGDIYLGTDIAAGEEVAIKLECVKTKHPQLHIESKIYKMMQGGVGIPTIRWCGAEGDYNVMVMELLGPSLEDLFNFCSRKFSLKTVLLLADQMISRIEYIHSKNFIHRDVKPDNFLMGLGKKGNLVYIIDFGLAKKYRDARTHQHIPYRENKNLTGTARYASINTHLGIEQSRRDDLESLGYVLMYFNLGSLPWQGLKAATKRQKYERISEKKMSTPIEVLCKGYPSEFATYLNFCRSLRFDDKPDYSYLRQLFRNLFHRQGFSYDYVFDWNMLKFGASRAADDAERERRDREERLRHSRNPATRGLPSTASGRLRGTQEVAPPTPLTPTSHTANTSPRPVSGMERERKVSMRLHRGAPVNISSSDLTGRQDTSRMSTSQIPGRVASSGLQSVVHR

[5] = molecular target: CK1ε (Homo sapiens, UniProt P49674); assay: CK1ε inhibition IC50; format: biochemical; conditions: Table 6; read-out: IC50 CK1ε
Sequence of CK1ε (P49674 whole entry, the tested form may be a part): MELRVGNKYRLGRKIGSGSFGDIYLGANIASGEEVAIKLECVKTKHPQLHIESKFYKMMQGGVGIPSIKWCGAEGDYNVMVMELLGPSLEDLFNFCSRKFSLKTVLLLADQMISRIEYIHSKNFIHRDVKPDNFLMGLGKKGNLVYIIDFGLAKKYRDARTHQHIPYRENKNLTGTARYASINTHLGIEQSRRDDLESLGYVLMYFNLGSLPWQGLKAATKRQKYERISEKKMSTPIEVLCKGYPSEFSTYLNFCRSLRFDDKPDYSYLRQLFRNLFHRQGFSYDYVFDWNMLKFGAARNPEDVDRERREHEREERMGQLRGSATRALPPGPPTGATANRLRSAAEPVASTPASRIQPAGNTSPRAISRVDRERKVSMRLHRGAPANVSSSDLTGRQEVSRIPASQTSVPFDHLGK

[6] = tested on: primary FSHD cells; assay: fusion index (myotube fusion) readout of the high-content assay in primary FSHD cells; format: cell-based, human; conditions: 72 h, CK1 inhibitor combined with losmapimod, microscopic images
Description: as §1, §2

[7] = molecular target: p38α (Homo sapiens, UniProt Q16539); assay: p38α inhibition IC50; format: biochemical; conditions: Table 6; read-out: IC50 p38α
Sequence of p38α (Q16539 whole entry): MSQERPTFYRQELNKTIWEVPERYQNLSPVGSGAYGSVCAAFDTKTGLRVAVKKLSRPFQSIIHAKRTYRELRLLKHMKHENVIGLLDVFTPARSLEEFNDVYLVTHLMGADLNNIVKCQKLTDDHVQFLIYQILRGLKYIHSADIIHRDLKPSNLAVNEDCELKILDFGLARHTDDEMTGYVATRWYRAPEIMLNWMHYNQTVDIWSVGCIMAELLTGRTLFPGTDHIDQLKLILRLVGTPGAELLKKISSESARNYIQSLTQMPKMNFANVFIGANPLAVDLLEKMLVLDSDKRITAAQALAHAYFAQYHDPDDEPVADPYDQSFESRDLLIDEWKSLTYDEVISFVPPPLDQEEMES

## COc1cc(OC)c(C=C2C(O)=Nc3ccccc32)c(OC)c1 [IC261]
[1]
  pancreatic tumor cell growth: reduces pancreatic tumor cell growth

## COc1cc(OC)c2c(=O)[nH]c(-c3cc(C)c(OCCO)c(C)c3)nc2c1 [RVX-208, reference compound]
[2]
  expression of DUX4: can inhibit the expression of DUX4
[3]; irrespective of treatment time (15 h or 72 h)
  effect on DUX4 expression: did not show any effect on DUX4 expression

## Cn1cc(-c2ccnc3c2C(=O)OC3)c(-c2ccc(F)cc2)n1 [Nr. 4]
[4]
  IC50: 33 nM
[3]; Table 4
  EC50: 4800 nM
[3]; Table 6
  EC50: 4800 nM
[5]
  IC50: 52 nM
[6]
  myotube formation in the presence of increasing concentrations of losmapimod: myotube formation is still intact

## Fc1ccc(-c2nc3ccc(N4CCNCC4)nn3c2-c2ccncc2)cc1 [Nr. 8]
[7]
  IC50: 15 nM
[4]
  IC50: 16 nM
[3]; 72 h treatment
  effect on DUX4: near maximal DUX4 inhibition
[3]; Table 4
  EC50: 10 to 60 nM
[3]; Table 6
  EC50: 10 nM
[5]
  IC50: 9 nM
[6]
  myotube formation in the presence of increasing concentrations of losmapimod: myotube formation is still intact
